We go through four compounds from publication PMC10508264, “Exploring the antioxidant, antimicrobial, cytotoxic and biothermodynamic properties of novel morpholine derivative bioactive Mn(II), Co(II) and Ni(II) complexes – combined experimental and theoretical measurements towards DNA/BSA/SARS-CoV-2 3CL^Pro” (RSC Medicinal Chemistry, 2023).

In one test the test system is NHDF. Kind of test: MTT cell viability assay, NHDF. The test is classed as cell-based, human. To be noted: NHDF normal cells, 72 h of exposure. Here is the method: Cellular viability or metabolic properties can be measured using the MTT assay, which is a powerful and consistent method for cytotoxic properties. […] As per the colorimetric approach, the IC50 values of all compounds were evaluated via the percentage of cell viability or inhibition of growth.[128] […] However, complexes (2) and (3) were exposed to similar cytotoxic potential as the others,[129] which induces apoptosis due to their ability to produce ROS more efficiently than the free ligand. […] The cytotoxic effectiveness is dependent upon the DNA binding modalities, the structure–activity relationship, the drug concentrations, and the incubation period exposure.[130] […] Coordination between the ligands and metal ions results in charge equilibration, which diminishes the polarity of the metal ions and also causes the ability of the test complexes to pass via the cell membrane lipid layer in accordance with Tweedy's chelation theory. Thus, it inhibits the synthesis of cell-wall/protein/nucleic acid. Additionally, the results of DNA binding tests using these complexes, including gel electrophoresis, UV-vis spectral titration, hydrodynamics, emission, and CV findings, were in good agreement with the findings of cytotoxicity.[131] Expressions eqn (44) and (45) were applied to measure the percentage of growth inhibition and cell viability (Table 10). In this case, complexes (2) and (3) have been proven to have greater biological efficiency than the others. Cytotoxicity depends on not only the hydrophilicity or lipophilicity and permeability, which only assist the crossing of the cell membrane but are not responsible for cell death, but also on several other factors, including the Lewis acid character, overall stability, solubility, conductivity, compatibility, length of the metal–ligand bond, overall charge, electron density, reduction potential, dipole moment, intermolecular hydrogen bonds, proton transfer equilibrium, and coordination environment. These significant elements might also contribute to the increased biological activity. Moreover, cobalt is also generally not considered to be a very toxic element, and its coordination complexes have fascinating redox and magnetic characteristics that fit them for a remarkable range of biological and medical uses. […] Moreover, it is possible to intelligently adjust these factors to successfully target a desired pathway or biomolecule. Designing such well-controlled and selective cobalt-based therapeutics may benefit from a mechanistic understanding of the varied bioactivities of cobalt complexes. Thus, knowing the mechanism of action can direct the advancement of prospective cobalt treatments to clinical trial.[133]
2.5. Assessment of in-vitro antimicrobial properties
bacteria and 7 days for fungal strains.

Test [1] in a line: Nitric oxide scavenging assay. It counts as biochemical. To be noted: 546 nm.
Another test has as its system MCF-7. The test is described as follows: MTT cell viability assay, MCF-7. The test is classed as cell-based, human. The following applies: MCF-7, 72 h of exposure. (Tetrazolium assays rely on reduction of a dye to a coloured formazan, in cell work by metabolically active cells.)
The next test concerns CT-DNA. The test is described as follows: DNA binding by cyclic voltammetry. The following applies: for Kb, method I, Oxi: oxidation; for Kb, method I, red: reduction. Here is the method:
The changes in peak current as well as peak potential were monitored while concentrations of CT-DNA were increased (0–10 μM) in each sample solution.[13,36]
The CV approach is one of the most important methods for evaluating the binding mechanism of a DNA–complex adduct. The CV properties of all test samples in the presence and absence of DNA were executed at a scan rate (v) of 0.1 V s^−1 with a potential range of +2 to −2 in a Tris–HCl (5 mM)/NaCl (50 mM) (pH = 7.2) solution. The M^1+/M^2+ redox couple is caused by complexes that reveal a single anodic and cathodic peak. […] (Fig. S31 ^† and Table 6).
ΔEP is peak-to-peak separation = (EPa − EPc); E° (or E1/2) denotes the formal electrode potential = 1/2(EPa + EPc); [drawing 41] [drawing 42] and [drawing 43] represent the formal electrode potential of the M^1+/M^2+ couple in the bound and free forms, respectively. [drawing 44] = +19 mV (HL), +18 mV (1), +16 mV (2), +16 mV (3). Ipa is anodic peak current, Ipc is cathodic peak current. K^1+ is the binding constant of the reduction process, K^2+ is the binding constant of the oxidation process. S represents the binding site size of base pairs (bp) with a molecule of complex, scan rate is 100 mV s^−1, binding constant (Kb) values observed from the linear plots of log(1/[DNA]) versus log(I/I0 − I) for oxidation and reduction, (I0 − IDNA)/IDNA = Cp/Cfversus [DNA] and I^2p versus(I^2po − I^2p)/[DNA] by methods I, II and III, respectively.
While the substances often bind to DNA through intercalation, the peak potential shifts in a positive direction. When the compounds bind to DNA through minor or major grooves or electrostatic attractions, the peak potential shifts occur in a negative direction. It was observed that the consistent movement of peak potential shifts in the positive direction during increments of DNA with test substances. The binding mode in compound–DNA adducts has been described as primarily intercalation (Fig. S31 ^†), and it is also attributed to the presence of 2,2′-bipyridine and morpholine fused aromatic planar systems in mixed ligand complexes, which can create inclusion through intercalation due to hydrophobic and π–π stacking interactions in the DNA base pairs. It is also supported by the evaluated outcomes from UV-vis spectral, emission titration, viscometric, and biothermodynamic properties. Furthermore, the observed values of Kb, S, and the ratio of binding constants (K^1+/K^2+) for M^1+/M^2+ couple systems further confirmed the binding affinity via intercalation. Also, the subsequent eqn (24)–(35) are applied to determine the above parameters.[88,89]Eqn (24) is acquired from modification of the Stern–Volmer eqn (14) (Table 6). The Kb values for all samples were estimated from the linear regression plot of log(1/[DNA]) versus log(I/I0 − I) by method I (Fig. S32 ^† and Table 6). Eqn (26) was obtained from revision of eqn (25). Also, binding site size (S, bp) and Kb are estimated from eqn (30) from the linear regression plot of (Cp/Cf) versus [DNA] by method-II[90–92] (Fig. S33 ^† and Table 6). In addition, base-pair sites with a molecule of the compound are referred to as “binding site size” (S), and the evaluated S values were found in the range from 0.1718 to 0.4599 bp. […] In the Nernst eqn (31) and (32) for the galvanic cell, [drawing 58] , the formal electrode potentials of the M^1+/M^2+ couple in their bound and free forms are E1/2 or [drawing 59] and [drawing 60] , respectively. As a result of the variable binding state [M^1+/M^2+] and the delayed mass transfer of test compounds that interacted with DNA fragments, the addition of DNA to the compound solution enabled a change in the redox potential to a higher positive direction and a drop in both anodic and cathodic peak currents. In particular, the equilibrium of M^1+/M^2+ is influenced by electrostatic or hydrophobic interactions.

Another test concerns Staphylococcus Aureus. The test is described as follows: Agar disc diffusion, strain F. To be noted: for Diameter of clear zone inhibition: control 6 mm. The test is classed as cell-based. Further details: Inhibition%: concentration or dose not given beside the values. (In general: In agar diffusion tests the substance spreads into inoculated agar from a disc or well.)
A further test has as its system Mucor indicus. Kind of test: Agar disc diffusion, strain J. The test is classed as cell-based. The following applies: for Diameter of clear zone inhibition: control 6 mm. Further details: Inhibition%: concentration or dose not given beside the values.

As usually defined, the IC50 is the concentration needed to halve the response being measured.

Turning to `Oc1ccccc1N=Cc1ccc(N2CCOCC2)cc1` [(HL), 2-(4-morpholinobenzylideneamino)phenol], the IC50 stood at 209 ± 10.4 µM in the test with NHDF (Homo sapiens) and 105 ± 5.3 µM in the test on MCF-7 (Homo sapiens, MCF7). The “% Inhibition, nitric oxide” value in test [1] (40 µM) is listed as 11.42%; in test [1] (80 µM), 18.26%; in test [1] (120 µM) it was 24.28%; in test [1] (160 µM) it was 33.21%; in test [1] (200 µM), 40.53%; in test [1] (240 µM) it was 51.62%. Also, in the test on CT-DNA, the “Kb, method II” value worked out at 2443 M⁻¹. In addition, the “Kb, method III” value with CT-DNA was found to be 4837 M⁻¹. In the test with CT-DNA, the “Kb, method I, Oxi” value worked out at 5280 M⁻¹. For the same compound, the “Kb, method I, red” value in the test on CT-DNA turned out to be 3809 M⁻¹. Further, the Inhibition% in the test on Staphylococcus Aureus amounted to 33%; in the test with Mucor indicus, 45%. Besides, the “Diameter of clear zone inhibition” value in the test on Staphylococcus Aureus is recorded as 09 mm; in the test with Mucor indicus, 11 mm.

In the case of `[Mn+2].[O-]c1ccccc1N=Cc1ccc(N2CCOCC2)cc1.[O-]c1ccccc1N=Cc1ccc(N2CCOCC2)cc1.c1ccc(-c2ccccn2)nc1` [(1)], the 50% inhibitory concentration (IC50) was determined as 76.6 ± 3.8 µM in the test with NHDF and 36.6 ± 1.8 µM with MCF-7. The “% Inhibition, nitric oxide” value in test [1] (40 µM) is on record as 13.14%; in test [1] (80 µM) it was 22.48%; in test [1] (120 µM), 28.54%; in test [1] (160 µM), 36.64%; in test [1] (200 µM), 44.75%; in test [1] (240 µM) it was 56.69%. For the same compound, the “Kb, method II” value with CT-DNA is 14873 M⁻¹. Further, the “Kb, method III” value with CT-DNA was 10713 M⁻¹. Also, in the test with CT-DNA, the “Kb, method I, Oxi” value was found to be 10020 M⁻¹. Further, the “Kb, method I, red” value in the test with CT-DNA was found to be 7890 M⁻¹. Also, the Inhibition% in the test with Staphylococcus Aureus turned out to be 40%; in the test with Mucor indicus it was 45%. Further, the “Diameter of clear zone inhibition” value in the test on Staphylococcus Aureus came to 10 mm; in the test on Mucor indicus, 11 mm.

Consider `[Ni+2].[O-]c1ccccc1N=Cc1ccc(N2CCOCC2)cc1.[O-]c1ccccc1N=Cc1ccc(N2CCOCC2)cc1.c1ccc(-c2ccccn2)nc1` [(3)], for which the concentration for half-maximal inhibition (IC50) with NHDF amounted to 73.8 ± 3.7 µM; in the test on MCF-7 it was 34.5 ± 1.7 µM. For the same compound, the “% Inhibition, nitric oxide” value stood at 14.72% in test [1] (40 µM); 23.28% in test [1] (80 µM); 29.66% in test [1] (120 µM); 38.63% in test [1] (160 µM); 45.60% in test [1] (200 µM); 59.65% in test [1] (240 µM). In addition, the “Kb, method II” value in the test on CT-DNA turned out to be 6072 M⁻¹. The “Kb, method III” value with CT-DNA was determined as 16031 M⁻¹. For the same compound, the “Kb, method I, Oxi” value in the test with CT-DNA was 11440 M⁻¹. The “Kb, method I, red” value in the test on CT-DNA was found to be 9156 M⁻¹. In addition, the Inhibition% worked out at 40% with Staphylococcus Aureus and 54% with Mucor indicus. For the same compound, the entries for the “Diameter of clear zone inhibition” value in the test on Staphylococcus Aureus and in the test with Mucor indicus were 10 mm and 13 mm, respectively.

`[Co+2].[O-]c1ccccc1N=Cc1ccc(N2CCOCC2)cc1.[O-]c1ccccc1N=Cc1ccc(N2CCOCC2)cc1.c1ccc(-c2ccccn2)nc1` [(2)]: the IC50 in the test on NHDF came to 74 ± 3.7 µM; with MCF-7 it was 35.9 ± 1.8 µM. Also, the “% Inhibition, nitric oxide” value was found to be 14.72% in test [1] (40 µM); 23.62% in test [1] (80 µM); 31.21% in test [1] (120 µM); 39.12% in test [1] (160 µM); 46.06% in test [1] (200 µM); 61.34% in test [1] (240 µM). Further, in the test with CT-DNA, the “Kb, method II” value is 41119 M⁻¹. Besides, the “Kb, method III” value with CT-DNA stood at 15999 M⁻¹. Moreover, the “Kb, method I, Oxi” value in the test with CT-DNA amounted to 14210 M⁻¹. Moreover, the “Kb, method I, red” value in the test on CT-DNA was found to be 11330 M⁻¹. The Inhibition% in the test on Staphylococcus Aureus and in the test with Mucor indicus was 45% throughout. Further, the “Diameter of clear zone inhibition” value with Staphylococcus Aureus and in the test with Mucor indicus was 11 mm in each case.
